Measured values: patent US20260028365A1 (BIOGEN MA INC., priority 2022, published 2026)

biological target: JH2 domain of human Tyk2 (Homo sapiens (Human), UniProt P29597); assay: JH2 Biochemical Assay (TR-FRET probe displacement); format: binding; settings: JH2 domain of human Tyk2, TR-FRET probe displacement
Description: The inhibitory potency of compounds of the disclosure against the kinase activity of recombinantly generated JH2 domain of human Tyk2 was evaluated in a plate-based assay using a TR-FRET assay platform. Briefly, 2 nM of recombinant JH2 domain [10×His-tagged TYK2 JH2 domain (amino acid 575-876)] was combined with 2 nM probe ((S)-6-amino-9-(2-carboxy-4-((1-(3-(8-methyl-5-(methylamino)-8H-imidazo[4,5-d]thiazolo[5,4-b]pyridin-2-yl)phenyl)ethyl)carbamoyl)phenyl)-3-iminio-5-sulfo-3H-xanthene-4-sulfonate), 0.1 nM Tb-labeled anti-His antibody, and compounds of disclosure for 60 minutes. Compounds are tested at either 10 μM or 1 μM top concentration, 10 points of 3-fold dilution. The TR-FRET signal inversely correlates to the amount of probe displaced by compounds and signal was calculated by taking the ratio of fluorescence at 520 nm and 495 nm. The data was normalized and the percent activity versus log concentration of compound was fitted with a 4-parameter logistic model to generate IC50 curves.

Chain of JH2 domain of human Tyk2 (P29597 575-876): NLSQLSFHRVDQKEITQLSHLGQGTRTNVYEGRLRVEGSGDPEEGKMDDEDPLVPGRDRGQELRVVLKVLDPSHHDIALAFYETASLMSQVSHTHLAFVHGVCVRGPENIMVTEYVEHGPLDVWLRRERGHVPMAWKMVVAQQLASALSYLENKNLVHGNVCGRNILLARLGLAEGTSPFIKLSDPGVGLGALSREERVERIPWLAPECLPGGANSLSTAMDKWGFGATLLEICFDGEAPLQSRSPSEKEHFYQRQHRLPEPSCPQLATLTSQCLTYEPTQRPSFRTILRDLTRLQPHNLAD

Structure (SMILES)	IC50 [nM]
CC(=O)Nc1cc(Nc2cc(C)nc(C(C)(F)F)n2)c(-c2cnc(C(C)N3CCCC3)cn2)cn1 (stereo not drawn) [Example 742, N-(4-((2-(1,1-difluoroethyl)-6-methylpyrimidin-4-yl)amino)-5-(5-(1-(pyrrolidin-1-yl)ethyl)pyrazin-2-yl)pyridin-2-yl)acetamide]	≤ 10
COc1cc(C)nc(-c2cnc(NC(C)=O)cc2Nc2cc(C)nc(C(C)(F)F)n2)n1 [Example 621, N-(4-((2-(1,1-difluoroethyl)-6-methylpyrimidin-4-yl)amino)-5-(4-methoxy-6-methylpyrimidin-2-yl)pyridin-2-yl)acetamide]	10 to 100
CC(=O)Nc1cc(Nc2cc(C)nc(C(C)(F)F)n2)c(N2CCCC2)cn1 [Example 726, N-(4-((2-(1,1-difluoroethyl)-6-methylpyrimidin-4-yl)amino)-5-(pyrrolidin-1-yl)pyridin-2-yl)acetamide]	10 to 100
COCC12CC(c3nc(C)cc(Nc4cc(NC(C)=O)ncc4-c4ccn(C)n4)n3)(CO1)C2 [Example 561, N-(4-((2-(1-(methoxymethyl)-2-oxabicyclo[2.1.1]hexan-4-yl)-6-methylpyrimidin-4-yl)amino)-5-(1-methyl-1H-pyrazol-3-yl)pyridin-2-yl)acetamide]	10 to 100
CC(=O)Nc1cc(Nc2cc(C)nc(C(C)(F)F)n2)c(OCC2(C)CCCCO2)cn1 (stereo not drawn) [Example 435, N-(4-((2-(1,1-difluoroethyl)-6-methylpyrimidin-4-yl)amino)-5-((2-methyltetrahydro-2H-pyran-2-yl)methoxy)pyridin-2-yl)acetamide]	≤ 10
CC(=O)Nc1cc(Nc2cc(C)nc(C(C)(F)F)n2)c(-n2cnc(C)n2)cn1 [Example 735, N-(4-((2-(1,1-difluoroethyl)-6-methylpyrimidin-4-yl)amino)-5-(3-methyl-1H-1,2,4-triazol-1-yl)pyridin-2-yl)acetamide]	10 to 100
CC(=O)Nc1cc(Nc2cc(C)nc(C(C)(F)F)n2)c(N2CCOCC2)cn1 [Example 727, N-(4-((2-(1,1-difluoroethyl)-6-methylpyrimidin-4-yl)amino)-5-morpholinopyridin-2-yl)acetamide]	100 to 1000
COc1cnc(NC(C)=O)cc1Nc1cc(-c2cc(C)c3nn(C)cc3c2)nc(C(C)(F)F)n1 [Example 400, N-(4-((2-(1,1-difluoroethyl)-6-(2,7-dimethyl-2H-indazol-5-yl)pyrimidin-4-yl)amino)-5-methoxypyridin-2-yl)acetamide]	≤ 10
CC(=O)Nc1cc(Nc2cc(C)nc(C(C)(F)F)n2)c(-c2cc(F)ccn2)cn1 [Example 624, N-(4′-((2-(1,1-difluoroethyl)-6-methylpyrimidin-4-yl)amino)-4-fluorO[2,3′-bipyridin]-6′-yl)acetamide]	≤ 10
CC(=O)Nc1cc(Nc2ccnc(C(C)(F)F)n2)c(-c2csc(C(C)(C)F)n2)cn1 [Example 713, N-(4-((2-(1,1-difluoroethyl)pyrimidin-4-yl)amino)-5-(2-(2-fluoropropan-2-yl)thiazol-4-yl)pyridin-2-yl)acetamide]	≤ 10

same assay, conditions: TR-FRET probe displacement, JH2 domain of human Tyk2

Structure (SMILES)	IC50 [nM]
CC(=O)Nc1cc(Nc2cc(C)nc(C(C)(F)F)n2)c(OCc2ncsc2C)cn1 [Example 329, N-(4-((2-(1,1-difluoroethyl)-6-methylpyrimidin-4-yl)amino)-5-((5-methylthiazol-4-yl)methoxy)pyridin-2-yl)acetamide]	10 to 100
CCc1cc(Nc2cc(NC(C)=O)ncc2-c2noc(C)n2)nc(C(C)(F)F)n1 [Example 170, N-(4-((2-(1,1-difluoroethyl)-6-ethylpyrimidin-4-yl)amino)-5-(5-methyl-1,2,4-oxadiazol-3-yl)pyridin-2-yl)acetamide]	10 to 100
CC(=O)Nc1cc(Nc2cc(C)nc(C(C)(F)F)n2)c(OCC2(C)CCOCC2)cn1 [Example 317, N-(4-((2-(1,1-difluoroethyl)-6-methylpyrimidin-4-yl)amino)-5-((4-methyltetrahydro-2H-pyran-4-yl)methoxy)pyridin-2-yl)acetamide]	≤ 10
CCOc1cnc(NC(C)=O)cc1N(C)c1cc(C)nc(C(C)(F)F)n1 [Example 54, N-(4-((2-(1,1-difluoroethyl)-6-methylpyrimidin-4-yl)(methyl)amino)-5-ethoxypyridin-2-yl)acetamide]	≥ 1000
CCOc1cnc(NC(C)=O)cc1Nc1cc(C(C)(F)F)ncn1 [Example 33, N-(4-((6-(1,1-difluoroethyl)pyrimidin-4-yl)amino)-5-ethoxypyridin-2-yl)acetamide]	100 to 1000
CC(=O)Nc1cc(Nc2cc(C)nc(C(C)(F)F)n2)c(C(C)C)cn1 [Example 44, N-(4-((2-(1,1-difluoroethyl)-6-methylpyrimidin-4-yl)amino)-5-isopropylpyridin-2-yl)acetamide]	10 to 100
CC(=O)Nc1cc(Nc2ccnc(C(C)(F)F)c2)c(-c2cc(C)ncn2)cn1 [Example 199, N-(4-((2-(1,1-difluoroethyl)pyridin-4-yl)amino)-5-(6-methylpyrimidin-4-yl)pyridin-2-yl)acetamide]	10 to 100
CC(=O)Nc1cc(Nc2cc(C)nc(C(C)(F)F)n2)c(OCC2(CF)CCOCC2)cn1 [Example 340, N-(4-((2-(1,1-difluoroethyl)-6-methylpyrimidin-4-yl)amino)-5-((4-(fluoromethyl)tetrahydro-2H-pyran-4-yl)methoxy)pyridin-2-yl)acetamide]	10 to 100
CCc1cc(Nc2cc(NC(C)=O)ncc2-c2ccc(OC)nn2)nc(C(C)(F)F)n1 [Example 220, N-(4-((2-(1,1-difluoroethyl)-6-ethylpyrimidin-4-yl)amino)-5-(6-methoxypyridazin-3-yl)pyridin-2-yl)acetamide]	≤ 10
COCCCc1cnc(NC(C)=O)cc1Nc1cc(C)nc(C(C)(F)F)n1 [Example 152, N-(4-((2-(1,1-difluoroethyl)-6-methylpyrimidin-4-yl)amino)-5-(3-methoxypropyl)pyridin-2-yl)acetamide]	10 to 100
CC(=O)Nc1cc(Nc2cc(C)nc(C(C)(F)F)n2)c(-c2nc3c(s2)CN(CC#N)CC3)cn1 [Example 285, N-(5-(5-(cyanomethyl)-4,5,6,7-tetrahydrothiazolo[5,4-c]pyridin-2-yl)-4-((2-(1,1-difluoroethyl)-6-methylpyrimidin-4-yl)amino)pyridin-2-yl)acetamide]	≤ 10
CC(=O)Nc1cc(Nc2cc(C)nc(C(C)(F)F)n2)c(OC[C@]23CC[C@](C)(CC2)CO3)cn1 [Example 347, N-(4-((2-(1,1-difluoroethyl)-6-methylpyrimidin-4-yl)amino)-5-(((1s,4s)-4-methyl-2-oxabicyclo[2.2.2]octan-1-yl)methoxy)pyridin-2-yl)acetamide]	≤ 10
CCOc1cnc(NC(=O)C2CC2)cc1Nc1cc(C)nc(C(C)(F)F)n1 [Example 28, N-(4-((2-(1,1-difluoroethyl)-6-methylpyrimidin-4-yl)amino)-5-ethoxypyridin-2-yl)cyclopropanecarboxamide]	10 to 100
CC(=O)Nc1cc(Nc2cc(C)nc(C(C)(F)F)n2)c(OCCOC2CC2)cn1 [Example 316, N-(5-(2-cyclopropoxyethoxy)-4-((2-(1,1-difluoroethyl)-6-methylpyrimidin-4-yl)amino)pyridin-2-yl)acetamide]	≤ 10
